These results are taken from PubChem BioAssay AID2060487 (Molecular Pharmacology Branch, DTP, NCI, 2025).

This assay deals with 997537-175-T-J1-PDC complex spheroid viability. In words: Anticancer human tumor 997537-175-T-J1-PDC patient-derived colon adenocarcinoma cell line growth inhibition [GQUAD]. Conditions: for viability, T/C: stronger effect = lower value. An excerpt:
DNA G-quadruplex Stabilizer Agents in Combinations in Complex Spheroids
A high-throughput screen of multi-cell type tumor spheroids was designed to identify active combinations of DNA G-quadruplex stabilizer agents and targeted small molecules. Complex spheroids include a stromal component modeled by human endothelial cells (HUVEC) and fibroblasts modeled by human mesenchymal stem cells (MSCs). The concentration ranges selected for each drug and investigational agent were based upon clinically achievable concentrations if the clinical Cmax of the agent was known.
Compounds. The drugs and investigational agents: pidnarulex (CX-5461; NSC782164), APTO-253 (NSC789042), BRACO-19 (NSC847499), peposertib (NSC802822), ceralasertib (NSC780249), elimusertib (NSC800525), camonsertib (NSC841442), AZD-1390 (NSC803789), olaparib (NSC753686), talazoparib (NSC767125), ART-558 (NSC835418), sotorasib (NSC818433), MRTX-1133 (NSC836407), SN-38 (NSC673596), topotecan (NSC609699), etoposide (NSC141540), doxorubicin (NSC123127), gemcitabine (NSC613327), 5-fluorouracil (NSC19893), paclitaxel (NSC125973), vemurafenib (NSC761431), panobinostat (NSC761190), R-306465 (JNJ-16241199; NSC773264), adavosertib (NSC754352), TP-3654 (NSC805149), carboplatin (NSC241240), KSQ-4279 (NSC840948), and staurosporine (NSC755774) were obtained from the National Cancer Institute (NCI) Developmental Therapeutics Program Chemical Repository (34). The FDA-approved anticancer drug set is available from the NCI Developmental Therapeutics Program. […] The stock solutions were prepared in dimethyl sulfoxide (DMSO, Sigma-Aldrich, St. Louis, MO, cat. D2650) at 800-fold the tested concentration and stored at -70 degrees C prior to their use. All drugs and investigational agents were tested over a range starting from a high concentration at or near the clinical Cmax and decreasing in half-log increments. If the clinical Cmax for an agent had not been determined, the highest concentration tested was 10 microM.
2.3 Cell Culture. All cells were maintained in an incubator at 37 degrees C and 5% CO2 with 95% humidity. The PDC lines were cultured according to standard operating procedures established by the NCI PDMR. All PDCs were thawed and cultured in Matrigel-coated flasks prepared with a working solution of 1X Ham's F-12 nutrient mix, without supplementation (Invitrogen, cat. 11765054), 100 U/mL penicillin-streptomycin (Invitrogen, cat. 15140122), and 2.5% Matrigel (Corning Inc., cat. 354248) for the first three passages. The 857933-349-R-J2-PDC line was cultured in 6C/Colon 1B media, which includes advanced DMEM/F-12 (Thermo Fisher Scientific, cat. 12634028), 10 mM HEPES (Thermo Fisher Scientific, cat. 15630080), 1X GlutaMAX supplement (Thermo Fisher Scientific, cat. 35050061), 0.1 mg/mL primocin (InvivoGen, cat. ant-pm-2), 10% defined fetal bovine serum, heat inactivated (HyClone Laboratories Inc., cat. SH30070.03HI), 50% L-WRN conditioned media (ATCC, cat. CRL-3276), 1.25 mM N-Acetyl-L-cysteine (Sigma-Aldrich, cat. A9165), 10 mM nicotinamide (Sigma-Aldrich, cat. N0636), 1X B-27 supplement (Thermo Fisher Scientific, cat. 17504044), 1X N-2 supplement (Thermo Fisher Scientific, cat. 17502048), 10 microM Y-27632 dihydrochloride (Tocris Bioscience, cat. 1254), and 50 ng/mL human EGF recombinant protein (Thermo Fisher Scientific, cat. PHG0311). The 485176-168-R4-J1-PDC line was cultured in Panc media, which includes all 6C/Colon 1B media components plus 100 ng/mL human FGF-10 (Thermo Fisher Scientific, cat. 100-26), 500 nM SB-431542 (Selleckchem, cat. S1067), and gastrin (Tocris, cat. 3006).
[…]

Values joined by “and” are separate entries in the source; they are usually repeats but may differ in a detail not shown here. Equal values may be shown once.
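Note: spheroids exposed to the agents for 7 days.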
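Throughout, for viability, T/C: 100% = DMSO vehicle control viability.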

As to `CC1COCCN1c1cc(-c2ccnn2C)c2ccnc(-c3ccn[nH]3)c2n1` (stereo unspecified) + CN(C)c1ccc(Nc2c3ccc(NC(=O)CCN4CCCC4)cc3nc3cc(NC(=O)CCN4CCCC4)ccc23)cc1, the half-maximal inhibitory concentration (IC50) is, setting by setting: (curve of first compound, second compound 0.0316 µM) 0.8 µM; (curve of first compound, second compound 0.1 µM) 2.46 µM; (curve of first compound, second compound 0.316 µM) more than 10 µM; (curve of first compound, second compound 1 µM) more than 10 µM; (curve of first compound, second compound 3.16 µM) more than 10 µM; (curve of first compound, second compound 10 µM) 0.264 µM. Further, the viability, T/C was 86.6% (second compound 0.0316 µM, first compound 0.0316 µM); 78.5% (second compound 0.0316 µM, first compound 0.1 µM); 58.1% (second compound 0.0316 µM, first compound 0.316 µM); 43.9% (second compound 0.0316 µM, first compound 1 µM); 46.8% (second compound 0.0316 µM, first compound 3.16 µM); 30.1% (second compound 0.0316 µM, first compound 10 µM). Besides, the viability, T/C by setting is: (second compound 0.1 µM, first compound 0.0316 µM) 95.8%; (second compound 0.1 µM, first compound 0.1 µM) 81.9%; (second compound 0.1 µM, first compound 0.316 µM) 69.5%; (second compound 0.1 µM, first compound 1 µM) 56.6%; (second compound 0.1 µM, first compound 3.16 µM) 40.1%; (second compound 0.1 µM, first compound 10 µM) 52.9%. Also, the viability, T/C reads like this: (second compound 0.316 µM, first compound 0.0316 µM) 97.7%; (second compound 0.316 µM, first compound 0.1 µM) 69.4%; (second compound 0.316 µM, first compound 0.316 µM) 61.6%; (second compound 0.316 µM, first compound 1 µM) 35.5%; (second compound 0.316 µM, first compound 3.16 µM) 54.9%; (second compound 0.316 µM, first compound 10 µM) 59.8%. Also, the viability, T/C runs as follows: (second compound 1 µM, first compound 0.0316 µM) 82.5%; (second compound 1 µM, first compound 0.1 µM) 59.7%; (second compound 1 µM, first compound 0.316 µM) 56.1%; (second compound 1 µM, first compound 1 µM) 34%; (second compound 1 µM, first compound 3.16 µM) 68.8%; (second compound 1 µM, first compound 10 µM) 51%. Further, the viability, T/C (second compound 3.16 µM, first compound 0.0316 µM) was 60.6%; the viability, T/C (second compound 3.16 µM, first compound 0.1 µM) was 70.3%; the viability, T/C (second compound 3.16 µM, first compound 0.316 µM) is 52.3%; the viability, T/C (second compound 3.16 µM, first compound 1 µM) was 44.1%; the viability, T/C (second compound 3.16 µM, first compound 3.16 µM) was 67.8%; the viability, T/C (second compound 3.16 µM, first compound 10 µM) was 60.6%. For the same compound, the viability, T/C (second compound 10 µM, first compound 0.0316 µM) was 89.6%; the viability, T/C (second compound 10 µM, first compound 0.1 µM) was 68.8%; the viability, T/C (second compound 10 µM, first compound 0.316 µM) is 43.8%; the viability, T/C (second compound 10 µM, first compound 1 µM) was 32.6%; the viability, T/C (second compound 10 µM, first compound 3.16 µM) is 50%; the viability, T/C (second compound 10 µM, first compound 10 µM) is 59.5%.

Take `C=CC(=O)N1CCN(c2nc(=O)n(-c3c(C)ccnc3C(C)C)c3nc(-c4c(O)cccc4F)c(F)cc23)C(C)C1` (stereo unspecified): the viability, T/C reads like this: (compound 0.0316 µM) 72.9% and 96.6% and 86.9%; (compound 0.1 µM) 72.7% and 83.5% and 95.8%; (compound 0.316 µM) 86.5% and 87.9% and 93.8%; (compound 1 µM) 92.2% and 77.4% and 73%; (compound 3.16 µM) 95.7% and 79.1% and 71.7%; (compound 10 µM) 94.6% and 94.1% and 90%. Also, the IC50 (curve of compound) is more than 10 µM.

Take `Cc1[nH]c2ccc(F)cc2c1-c1nc2c3cccnc3c3ncccc3c2[nH]1`: the viability, T/C (compound 0.1 µM) was 95.2% [middle of 12 runs]; the viability, T/C (compound 0.316 µM) was 98.8% [middle of 12 runs]; the viability, T/C (compound 3.16 µM) is 89.3% [middle of 12 runs]. Also, the half-inhibitory concentration (IC50) is, setting by setting: (compound alone, run of 04/16/2024) more than 10 µM; (compound alone, run of 04/22/2024) more than 10 µM.

Take `Nc1ccn(C2OC(CO)C(O)C2(F)F)c(=O)n1` (stereo unspecified): the viability, T/C runs as follows: (compound 0.0316 µM) 103% (2×) and 99.3%; (compound 0.1 µM) 92.3% and 96% and 108%; (compound 0.316 µM) 93.5% and 99.5% and 101%; (compound 1 µM) 91.9% and 64.2% and 92.5%; (compound 3.16 µM) 88.4% and 55.3% and 62%; (compound 10 µM) 85.4% and 64.9% and 84.9%. Moreover, the IC50 (curve of compound) is more than 10 µM.
